Our source for the IC50 values is US8053447B2, “11β-hydroxysteroid dehydrogenase type 1 active compounds” (High Point Pharmaceuticals, LLC, priority 2006, dated 2011).

This test deals with T1, h-11βHSD1 (Homo sapiens, UniProt P28845).
T1 construct: made in house
Kind of test: 11βHSD1 enzyme assay (scintillation proximity assay, 3H-cortisone to 3H-cortisol). To be noted: extract of yeast transformed with h-11βHSD1; 120 nM 3H-cortisone, 4 mM β-NADPH, 60 min at 30° C., SPA. The test is classed as biochemical. How it is done:
Pharmacological Methods 11βHSD1 Enzyme Assay Materials
^3H-cortisone and anti-rabbit Ig coated scintillation proximity assay (SPA) beads were purchased from Amersham Pharmacia Biotech, β-NADPH was from Sigma and rabbit anti-cortisol antibodies were from Fitzgerald. An extract of yeast transformed with h-11βHSD1 (Hult et al., FEBS Lett, 441, 25 (1998)) was used as the source of enzyme. The test compounds were dissolved in DMSO (10 mM). All dilutions were performed in a buffer containing 50 mM TRIS-HCl (Sigma Chemical Co), 4 mM EDTA (Sigma Chemical Co), 0.1% BSA (Sigma Chemical Co), 0.01% Tween-20 (Sigma Chemical Co) and 0.005% bacitracin (Novo Nordisk A/S), pH=7.4. Optiplate 96 wells plates were supplied by Packard. The amount of ^3H-cortisol bound to the SPA beads was measured on TopCount NXT, Packard.
h-11βHSD1, 120 nM ^3H-cortisone, 4 mM β-NADPH, antibody (1:200), serial dilutions of test compound and SPA particles (2 mg/well) were added to the wells. The reaction was initiated by mixing the different components and was allowed to proceed under shaking for 60 min at 30° C. The reaction was stopped be the addition of 10 fold excess of a stopping buffer containing 500 μM carbenoxolone and 1 μM cortisone. Data was analysed using GraphPad Prism software.
Background: In a scintillation proximity assay essentially only radioactivity close to the scintillant gives light.

What is called IC50 is the concentration needed to halve the response being measured.

T1 sequence (P28845 whole entry): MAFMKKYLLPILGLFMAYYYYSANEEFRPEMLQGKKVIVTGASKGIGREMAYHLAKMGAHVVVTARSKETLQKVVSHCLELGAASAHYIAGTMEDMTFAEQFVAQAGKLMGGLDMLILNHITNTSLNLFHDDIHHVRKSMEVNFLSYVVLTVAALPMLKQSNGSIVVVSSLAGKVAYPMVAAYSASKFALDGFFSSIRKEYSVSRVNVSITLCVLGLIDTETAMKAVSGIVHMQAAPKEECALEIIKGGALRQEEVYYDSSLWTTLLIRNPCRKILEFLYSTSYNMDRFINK

`CN(C(=O)c1ccc(OCC2CCN(S(=O)(=O)c3cn(C)cn3)CC2)cc1)C1C2CC3CC1CC(O)(C3)C2` (centres unmarked) [Example 6f, N-(5-Hydroxy-adamantan-2-yl)-N-methyl-4-[1-(1-methyl-1H-imidazole-4-sulfonyl)-piperidin-4-ylmethoxy]-benzamide]: the IC50 worked out at 2270 nM.

With `O=C(NC1C2CC3CC(C2)CC1C3)c1ccc(OC2CCC(O)CC2)cc1` (centres unmarked) [Example 1d, N-Adamantan-2-yl-4-(4-hydroxy-cyclohexyloxy)-benzamide], it took 75 nM to reach half-maximal inhibition (IC50).

`O=C(O)c1cccc(S(=O)(=O)N2CCC(COc3ccc(C(=O)N4CCCC5CCCCC54)cc3)CC2)c1` (centres unmarked) [Example 8f, 3-{4-[4-(Octahydro-quinoline-1-carbonyl)-phenoxymethyl]-piperidine-1-sulfonyl}-benzoic acid] gave a half-maximal inhibitory concentration (IC50) of 266 nM.

As for `O=C(NC1C2CC3CC(C2)CC1C3)c1ccc(N2CC3CC2CO3)cc1` (centres unmarked) [Example H, 4-(2-Oxa-5-aza-bicyclo[2.2.1]hept-5-yl)-N-adamantan-2-yl-benzamide], half-maximal inhibition (IC50) required 43 nM.

Molecule `O=C(NC1C2CC3CC(C2)CC1C3)c1ccc(OC2CCC(C(=O)O)CC2)cc1` (mixture of isomers) [Example 4a, Cis/trans 4-[4-adamantan-2-ylcarbamoyl)-phenoxy]-cyclohexanecarboxylic acid] displayed an IC50 of 678 nM.

`CC(C)NC(=O)N1CCC(COc2ccc(C(=O)N(C)C3C4CC5CC3CC(O)(C5)C4)cc2)CC1` (centres unmarked) [Example 5f, 4-{4-[(5-Hydroxy-adamantan-2-yl)-methyl-carbamoyl]-phenoxy-methyl}-piperidine-1-carboxylic acid isopropyl-amide] showed an IC50 of 1800 nM.

`O=C(O)c1ccc(OCC2CCC(Oc3ccc(C(=O)NC4C5CC6CC(C5)CC4C6)cc3)CC2)cc1` (centres unmarked) [Example 3e, 4-{4-[4-(Adamantan-2-yl-carbamoyl)-phenoxy]-cyclo-hexylmethoxy}-benzoic acid] yielded an IC50 of 300 nM.

In turn, `O=C(c1ccc(OCC2CCN(S(=O)(=O)c3ccccn3)CC2)cc1)N1CCCC2CCCCC21` (centres unmarked) [Example F, (Octahydro-quinolin-1-yl)-{4-[1-(pyridine-2-sulfonyl)-piperidin-4-ylmethoxy]-phenyl}-methanone] showed an IC50 of 134 nM.

Molecule `CC(C)CC(=O)N1CCC(Oc2ccc(C(=O)NC3C4CC5CC(C4)CC3C5)cc2)CC1` (centres unmarked) [Example 2b, 4-[1-(3-Methyl-butyryl)-piperidin-4-yloxy]-N-ada-mantan-2-yl-benzamide] displayed an IC50 of 284 nM.

Turning to `O=C(NC1C2CC3CC(C2)CC1C3)c1ccc(OCC2CCC(O)CC2)cc1` (centres unmarked) [Example 1f, 4-(4-Hydroxy-cyclohexyl-methoxy)-N-adamantan-2-yl-benzamide], half-maximal inhibition (IC50) required 465 nM.

Turning to `CN(C(=O)c1ccc(OC2CCC(NS(=O)(=O)c3ccccn3)CC2)cc1)C1C2CC3CC1CC(O)(C3)C2` (centres unmarked) [Example 7c, N-(5-Hydroxy-adamantan-2-yl)-N-methyl-4-[4-(pyridine-2-sulfonylamino)-cyclohexyl-oxy]-benzamide], the IC50 is 1120 nM.

Regarding `CCOC(=O)C1CCC(Oc2ccc(C(=O)N3CC4(C)CC3CC(C)(C)C4)cc2)CC1` (centres unmarked) [Example 1a, 4-[4-(1,3,3-Trimethyl-6-aza-bicyclo[3.2.1]octane-6-carbonyl)-phenoxy]-cyclo-hexanecarboxylic acid ethyl ester], the IC50 turned out to be 130 nM.

Consider `O=C(NC1CCC(Oc2ccc(C(=O)N3C4CCC3CC(O)C4)cc2)CC1)C1CC1` (centres unmarked) [Example C, Cyclopropanecarboxylic acid {4-[4-(3-hydroxy-8-aza-bicyclo[3.2.1]octane-8-carbonyl)-phenoxy]-cyclohexyl}-amide], for which inhibition was half-maximal at 1070 nM (IC50).

For the molecule `O=C(NC1C2CC3CC(C2)CC1C3)c1ccc(O[C@H]2CC[C@@H](NS(=O)(=O)c3ccccn3)CC2)cc1` (stereo partly drawn) [Example 3c, Cis-N-Adamantan-2-yl-4-[4-(pyridine-2-sulfonylamino)-cyclohexyloxy]-benzamide], the concentration for half-maximal inhibition (IC50) worked out at 96 nM. Against the preceding molecule, the IC50 is about 11-fold lower.

In the case of `O=C(c1ccc(N2[C@@H]3CC[C@H]2CC(Oc2ccccn2)C3)cc1)N1CCCC2CCCCC21` (stereo partly drawn) [Example 2h, (Octahydro-quinolin-1-yl)-{4-[(1S,5R)-3-(pyridin-2-yloxy)-8-aza-bicyclo[3.2.1]oct-8-yl]-phenyl}-methanone], the IC50 turned out to be 359 nM.

For the molecule `O=C(N[C@H]1CC[C@@H](Oc2ccc(C(=O)N3CCCC4CCCCC43)cc2)CC1)C1CC1` (stereo partly drawn) [Example 6c, Cis-Cyclopropanecarboxylic acid {4-[4-(octahydro-quino-line-1-carbonyl)-phenoxy]-cyclohexyl}-amide], the IC50 was found to be 120 nM.

`CC(C)CC(=O)N1CCC(Oc2ccc(C(=O)N3CC4CCCC3C4)cc2)CC1` (centres unmarked) [Example 5b, 1-{4-[4-(6-Aza-bicyclo[3.2.1]-octane-6-carbonyl)-phenoxy]-piperidin-1-yl}-3-methyl-butan-1-one] showed an IC50 of 1300 nM.

As for `O=C(O)C1CCC(Oc2ccc(C(=O)N3CC4CCC(CC4)C3)cc2)C1` (centres unmarked) [Example 7a, 3-[4-(3-Aza-bicyclo[3.2.2]-nonane-3-carbonyl)-phenoxy]-cyclopentane-carboxylic acid], it took 1400 nM to reach half-maximal inhibition (IC50). The IC50 values of the last two molecules are within 1.5-fold of each other.

The molecule `CCS(=O)(=O)N1CCC(COc2ccc(C(=O)N(C)C3C4CC5CC3CC(O)(C5)C4)cc2)CC1` (centres unmarked) [Example 7f, 4-(1-Ethanesulfonyl-piperidin-4-ylmethoxy)-N-(5-hydroxy-adamantan-2-yl)-N-methyl-benzamide] had an IC50 of 2180 nM. Against the preceding molecule, the IC50 is about 1.6-fold higher.

The molecule `NC(=O)C1CCC(Oc2ccc(C(=O)N3CCCC4CCCCC43)cc2)CC1` (centres unmarked) [Example 13a, 4-[4-(Octahydro-quinoline-1-carbonyl)-phenoxy]-cyclo-hexanecarboxylic acid amide] showed an IC50 of 73 nM.

With `O=C(O)C1CCC(Oc2ccc(C(=O)N3CCCC4CCCCC43)cc2)CC1` (centres unmarked) [Example 3a, 4-[4-(Octahydro-quinoline-1-carbonyl)-phenoxy]-cyclohexanecarboxylic acid], the IC50 worked out at 405 nM.

`C=CCOC(=O)c1ccc(OCC2CCC(Oc3ccc(C(=O)NC4C5CC6CC(C5)CC4C6)cc3)CC2)cc1` (centres unmarked) [Example 4e, 4-{4-[4-(Adamantan-2-yl-carbamoyl)-phenoxy]-cyclo-hexylmethoxy}-benzoic acid allyl ester]: the midpoint of inhibition, the IC50, lay at 482 nM. This IC50 and that of the molecule before are within 1.5-fold of each other.

Turning to `O=C(NC1C2CC3CC(C2)CC1C3)c1ccc(N2[C@@H]3CC[C@H]2CC(Oc2ccccn2)C3)cc1` (stereo partly drawn) [Example 3h, 4-[(1S,5R)-3-(Pyridin-2-yloxy)-8-aza-bicyclo[3.2.1]oct-8-yl]-N-adamantan-2-yl-benzamide], the IC50 came out at 976 nM.
